# Source: patent US9163013B2, “Use of 1H-indazole-3-carboxamide compounds as glycogen synthase kinase 3 beta inhibitors” (AZIENDE CHIMICHE RIUNITE ANGELINI FRANCESCO A.C.R.A.F. …, priority 2012, dated 2015)
# Counter-ions that a name gives are not always drawn.
# Assays:
# Experiment in all cases: Kinase selectivity panel
# Type in all cases: biochemical
# [1] = target: EphB4 kinase (h) (Homo sapiens (Human), UniProt P54760); details: duplicate, read-out: % inhibition of control values, EphB4 kinase (h)
# Experimental: (§1) (a) Compound 1 was tested against a panel of 60 kinases in order to assess its selectivity. The assays were chosen taking into consideration the diversity of assay families.
# (§2) Human recombinant kinases were incubated in the presence of specific peptide substrates plus ATP for different times (10, 15, 30, 60 or 90 minutes) at 22° C. Phosphorylated substrate was detected by LANCE or HTRF technology (CISBIO, MA, USA).
# (§3) Compound 1 was tested at 10 μM in duplicate.
# (§4) The results are expressed as a percent of inhibition of control specific activity obtained in the presence of the test compound 1 and are reported in the following Table 5.
# (§5) (b) Compounds 7, 12, 21 and 24 were tested against the same panel of 60 kinases under the same conditions described above for compound 1.
# (§6) The results are expressed as a percent of inhibition of control specific activity obtained in the presence of the test compounds and are reported in the following Table 6.
# [2] = target: IRK (h) (InsR) (Homo sapiens (Human), UniProt P06213); details: duplicate, read-out: % inhibition of control values, IRK (h) (InsR)
# Experimental: as §1, §2, §3, §4, §5, §6
# [3] = target: DLK1 (h) (MAP3K12) (Homo sapiens (Human), UniProt Q12852); details: duplicate, read-out: % inhibition of control values, DLK1 (h) (MAP3K12)
# Experimental: as §1, §2, §3, §4, §5, §6
# [4] = target: c-Met kinase (h) (Homo sapiens (Human), UniProt P08581); details: duplicate, read-out: % inhibition of control values, c-Met kinase (h)
# Experimental: as §1, §2, §3, §4, §5, §6
# [5] = target: PKCalpha (h) (Homo sapiens (Human), UniProt P17252); details: duplicate, read-out: % inhibition of control values, PKCalpha (h)
# Experimental: as §1, §2, §3, §4, §5, §6
# [6] = target: PKCgamma (h) (Homo sapiens (Human), UniProt P05129); details: duplicate, read-out: % inhibition of control values, PKCgamma (h)
# Experimental: as §1, §2, §3, §4, §5, §6
# [7] = target: Abl kinase (h) (Homo sapiens (Human), UniProt P00519); details: duplicate, read-out: % inhibition of control values, Abl kinase (h)
# Experimental: as §1, §2, §3, §4, §5, §6
# [8] = target: CaMK4 (h) (Homo sapiens (Human), UniProt Q16566); details: duplicate, read-out: % inhibition of control values, CaMK4 (h)
# Experimental: as §1, §2, §3, §4, §5, §6
# [9] = target: MNK2 (h) (Homo sapiens (Human), UniProt Q9HBH9); details: duplicate, read-out: % inhibition of control values, MNK2 (h)
# Experimental: as §1, §2, §3, §4, §5, §6
# [10] = target: PDK1 (h) (Homo sapiens (Human), UniProt O15530); details: duplicate, read-out: % inhibition of control values, PDK1 (h)
# Experimental: as §1, §2, §3, §4, §5, §6
# [11] = target: DCAMKL1 (h) (Homo sapiens (Human), UniProt O15075); details: duplicate, read-out: % inhibition of control values, DCAMKL1 (h)
# Experimental: as §1, §2, §3, §4, §5, §6
# [12] = target: ERK1 (h) (Homo sapiens (Human), UniProt P27361); details: duplicate, read-out: % inhibition of control values, ERK1 (h)
# Experimental: as §1, §2, §3, §4, §5, §6
# [13] = target: CHK1 (h) (Homo sapiens (Human), UniProt O14757); details: duplicate, read-out: % inhibition of control values, CHK1 (h)
# Experimental: as §1, §2, §3, §4, §5, §6
# [14] = target: Pim2 kinase (h) (Homo sapiens (Human), UniProt Q9P1W9); details: duplicate, read-out: % inhibition of control values, Pim2 kinase (h)
# Experimental: as §1, §2, §3, §4, §5, §6
# [15] = target: p38delta kinase (h) (Homo sapiens (Human), UniProt O15264); details: duplicate, read-out: % inhibition of control values, p38delta kinase (h)
# Experimental: as §1, §2, §3, §4, §5, §6
# [16] = target: IRAK4 (h) (Homo sapiens (Human), UniProt Q9NWZ3); details: duplicate, read-out: % inhibition of control values, IRAK4 (h)
# Experimental: as §1, §2, §3, §4, §5, §6
# [17] = target: FGFR1 kinase (h) (Homo sapiens (Human), UniProt P11362); details: duplicate, read-out: % inhibition of control values, FGFR1 kinase (h)
# Experimental: as §1, §2, §3, §4, §5, §6
# [18] = target: CDC2/CDK1 (h) (cycB) (Homo sapiens (Human), UniProt P06493); details: duplicate, read-out: % inhibition of control values, CDC2/CDK1 (h) (cycB)
# Experimental: as §1, §2, §3, §4, §5, §6
# [19] = target: Fyn kinase (h) (Homo sapiens (Human), UniProt P06241); details: duplicate, read-out: % inhibition of control values, Fyn kinase (h)
# Experimental: as §1, §2, §3, §4, §5, §6
# [20] = target: EphA4 kinase (h) (Homo sapiens (Human), UniProt P54764); details: duplicate, read-out: % inhibition of control values, EphA4 kinase (h)
# Experimental: as §1, §2, §3, §4, §5, §6
# [21] = target: MYT1 kinase (h) (Homo sapiens (Human), UniProt Q99640); details: duplicate, read-out: % inhibition of control values, MYT1 kinase (h)
# Experimental: as §1, §2, §3, §4, §5, §6
# [22] = target: AurB/Aur1 kinase (h) (Homo sapiens (Human), UniProt Q96GD4); details: duplicate, read-out: % inhibition of control values, AurB/Aur1 kinase (h)
# Experimental: as §1, §2, §3, §4, §5, §6
# [23] = target: FGFR4 kinase (h) (Homo sapiens (Human), UniProt P22455); details: duplicate, read-out: % inhibition of control values, FGFR4 kinase (h)
# Experimental: as §1, §2, §3, §4, §5, §6
# [24] = target: PKA (h) (Homo sapiens (Human), UniProt P17612); details: duplicate, read-out: % inhibition of control values, PKA (h)
# Experimental: as §1, §2, §3, §4, §5, §6
# [25] = target: NEK7 (h) (Homo sapiens (Human), UniProt Q8TDX7); details: duplicate, read-out: % inhibition of control values, NEK7 (h)
# Experimental: as §1, §2, §3, §4, §5, §6
# DCAMKL1 (h), sequence (O15075 whole entry): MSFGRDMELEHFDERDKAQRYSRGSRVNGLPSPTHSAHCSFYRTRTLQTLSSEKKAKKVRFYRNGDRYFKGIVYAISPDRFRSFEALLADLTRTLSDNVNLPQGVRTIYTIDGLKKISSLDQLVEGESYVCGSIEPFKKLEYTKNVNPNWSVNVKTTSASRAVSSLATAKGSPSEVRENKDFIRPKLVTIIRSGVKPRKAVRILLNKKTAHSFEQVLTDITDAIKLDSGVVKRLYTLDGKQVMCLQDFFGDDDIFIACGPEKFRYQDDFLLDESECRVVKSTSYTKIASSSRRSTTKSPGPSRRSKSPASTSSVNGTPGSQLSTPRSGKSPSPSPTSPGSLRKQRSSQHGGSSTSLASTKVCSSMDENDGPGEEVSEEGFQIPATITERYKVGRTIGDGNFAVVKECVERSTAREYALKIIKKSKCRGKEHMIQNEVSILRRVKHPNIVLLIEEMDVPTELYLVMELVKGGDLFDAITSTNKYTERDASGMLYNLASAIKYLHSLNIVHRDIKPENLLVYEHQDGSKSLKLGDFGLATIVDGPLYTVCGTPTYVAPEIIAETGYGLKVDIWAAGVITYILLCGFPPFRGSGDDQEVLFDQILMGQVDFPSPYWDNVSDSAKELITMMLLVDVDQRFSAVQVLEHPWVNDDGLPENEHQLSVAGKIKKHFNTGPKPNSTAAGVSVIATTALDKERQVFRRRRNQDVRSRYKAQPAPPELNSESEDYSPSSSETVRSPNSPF
# DLK1 (h) (MAP3K12), sequence (Q12852 whole entry): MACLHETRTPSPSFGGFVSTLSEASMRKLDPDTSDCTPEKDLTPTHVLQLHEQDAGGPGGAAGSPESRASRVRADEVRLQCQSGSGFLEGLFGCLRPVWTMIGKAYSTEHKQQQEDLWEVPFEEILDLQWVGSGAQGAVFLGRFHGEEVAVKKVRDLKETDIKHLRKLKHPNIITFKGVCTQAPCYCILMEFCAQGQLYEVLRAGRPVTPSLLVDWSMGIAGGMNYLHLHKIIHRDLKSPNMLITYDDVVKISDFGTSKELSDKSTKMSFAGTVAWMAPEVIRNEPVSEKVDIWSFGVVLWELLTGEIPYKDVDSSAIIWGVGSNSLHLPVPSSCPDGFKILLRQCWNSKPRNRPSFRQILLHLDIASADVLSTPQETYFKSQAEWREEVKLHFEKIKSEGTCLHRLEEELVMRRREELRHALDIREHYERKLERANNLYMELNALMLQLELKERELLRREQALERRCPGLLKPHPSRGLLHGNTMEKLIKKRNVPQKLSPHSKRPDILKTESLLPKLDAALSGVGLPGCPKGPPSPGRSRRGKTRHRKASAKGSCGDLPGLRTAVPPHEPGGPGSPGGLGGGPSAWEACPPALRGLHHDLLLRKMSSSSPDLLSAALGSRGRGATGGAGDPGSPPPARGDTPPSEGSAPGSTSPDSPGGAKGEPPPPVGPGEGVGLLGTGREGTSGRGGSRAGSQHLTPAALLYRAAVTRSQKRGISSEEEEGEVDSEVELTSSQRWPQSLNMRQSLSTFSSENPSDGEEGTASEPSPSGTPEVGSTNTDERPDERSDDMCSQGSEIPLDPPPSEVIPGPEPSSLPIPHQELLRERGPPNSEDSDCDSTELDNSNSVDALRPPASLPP
# CHK1 (h), sequence (O14757 whole entry): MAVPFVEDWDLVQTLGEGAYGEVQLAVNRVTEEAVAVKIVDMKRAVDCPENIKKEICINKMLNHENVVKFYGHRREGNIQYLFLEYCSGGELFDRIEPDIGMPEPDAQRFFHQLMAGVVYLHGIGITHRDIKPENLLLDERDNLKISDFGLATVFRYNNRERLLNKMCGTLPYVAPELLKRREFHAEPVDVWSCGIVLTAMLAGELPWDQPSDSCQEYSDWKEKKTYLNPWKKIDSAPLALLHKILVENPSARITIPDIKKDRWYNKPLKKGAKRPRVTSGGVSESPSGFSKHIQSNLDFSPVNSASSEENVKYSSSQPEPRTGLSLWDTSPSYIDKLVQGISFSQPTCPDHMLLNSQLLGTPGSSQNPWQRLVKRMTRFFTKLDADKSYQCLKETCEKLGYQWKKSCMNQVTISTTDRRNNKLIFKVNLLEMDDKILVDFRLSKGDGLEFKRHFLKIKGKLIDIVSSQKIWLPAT
# Abl kinase (h), sequence (P00519 whole entry): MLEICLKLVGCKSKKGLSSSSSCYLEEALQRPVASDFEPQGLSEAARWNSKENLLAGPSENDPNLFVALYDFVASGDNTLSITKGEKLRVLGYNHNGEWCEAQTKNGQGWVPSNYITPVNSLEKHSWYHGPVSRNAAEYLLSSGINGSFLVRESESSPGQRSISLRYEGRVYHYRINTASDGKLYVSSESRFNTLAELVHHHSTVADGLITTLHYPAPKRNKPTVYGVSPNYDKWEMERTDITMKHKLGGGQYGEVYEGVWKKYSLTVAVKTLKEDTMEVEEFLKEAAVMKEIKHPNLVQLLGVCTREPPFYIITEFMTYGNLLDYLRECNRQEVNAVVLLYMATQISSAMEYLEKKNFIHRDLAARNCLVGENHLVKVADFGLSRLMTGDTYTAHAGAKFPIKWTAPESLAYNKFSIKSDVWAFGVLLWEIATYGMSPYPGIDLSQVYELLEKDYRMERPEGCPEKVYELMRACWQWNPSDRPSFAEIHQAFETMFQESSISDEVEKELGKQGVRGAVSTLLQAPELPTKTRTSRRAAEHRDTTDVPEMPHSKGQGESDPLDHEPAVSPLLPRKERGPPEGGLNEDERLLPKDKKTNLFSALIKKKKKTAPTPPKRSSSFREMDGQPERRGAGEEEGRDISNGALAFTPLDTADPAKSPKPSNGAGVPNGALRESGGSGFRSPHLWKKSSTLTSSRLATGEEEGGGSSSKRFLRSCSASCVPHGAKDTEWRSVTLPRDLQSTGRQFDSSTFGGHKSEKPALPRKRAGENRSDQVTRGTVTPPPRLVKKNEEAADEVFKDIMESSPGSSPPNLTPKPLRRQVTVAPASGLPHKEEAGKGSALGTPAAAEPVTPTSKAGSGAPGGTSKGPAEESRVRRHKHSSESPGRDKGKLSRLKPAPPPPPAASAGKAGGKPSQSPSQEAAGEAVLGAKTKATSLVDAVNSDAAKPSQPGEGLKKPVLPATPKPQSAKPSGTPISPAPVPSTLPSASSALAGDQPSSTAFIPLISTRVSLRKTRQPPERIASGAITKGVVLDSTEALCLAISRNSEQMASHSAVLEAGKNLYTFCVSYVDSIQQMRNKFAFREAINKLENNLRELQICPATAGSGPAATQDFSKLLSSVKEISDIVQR
# IRAK4 (h), sequence (Q9NWZ3 whole entry): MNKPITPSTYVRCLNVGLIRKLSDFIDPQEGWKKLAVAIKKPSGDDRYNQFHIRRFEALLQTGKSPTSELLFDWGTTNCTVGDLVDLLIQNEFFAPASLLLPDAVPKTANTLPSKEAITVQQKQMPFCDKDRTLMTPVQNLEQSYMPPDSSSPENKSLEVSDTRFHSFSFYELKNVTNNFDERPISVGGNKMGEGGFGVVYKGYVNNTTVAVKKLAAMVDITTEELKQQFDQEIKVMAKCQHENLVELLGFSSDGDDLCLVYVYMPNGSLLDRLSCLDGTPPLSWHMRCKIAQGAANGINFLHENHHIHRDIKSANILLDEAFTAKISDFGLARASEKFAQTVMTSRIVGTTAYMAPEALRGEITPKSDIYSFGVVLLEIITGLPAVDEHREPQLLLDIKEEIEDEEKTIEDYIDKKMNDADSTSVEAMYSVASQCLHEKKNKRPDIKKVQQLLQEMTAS
# MYT1 kinase (h), sequence (Q99640 whole entry): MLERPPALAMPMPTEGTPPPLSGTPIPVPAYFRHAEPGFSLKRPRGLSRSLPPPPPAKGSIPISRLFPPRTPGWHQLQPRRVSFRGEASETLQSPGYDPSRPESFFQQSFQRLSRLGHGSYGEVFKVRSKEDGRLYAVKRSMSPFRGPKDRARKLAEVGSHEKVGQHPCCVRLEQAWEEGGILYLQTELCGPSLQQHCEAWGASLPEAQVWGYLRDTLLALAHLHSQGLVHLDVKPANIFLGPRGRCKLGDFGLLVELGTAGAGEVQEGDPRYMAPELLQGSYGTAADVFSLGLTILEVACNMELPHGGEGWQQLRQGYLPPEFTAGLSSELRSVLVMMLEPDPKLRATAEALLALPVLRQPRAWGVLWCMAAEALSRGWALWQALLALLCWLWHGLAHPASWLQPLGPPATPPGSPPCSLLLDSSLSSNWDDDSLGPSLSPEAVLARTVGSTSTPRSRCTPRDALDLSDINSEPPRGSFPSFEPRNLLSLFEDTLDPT
# Pim2 kinase (h), sequence (Q9P1W9 whole entry): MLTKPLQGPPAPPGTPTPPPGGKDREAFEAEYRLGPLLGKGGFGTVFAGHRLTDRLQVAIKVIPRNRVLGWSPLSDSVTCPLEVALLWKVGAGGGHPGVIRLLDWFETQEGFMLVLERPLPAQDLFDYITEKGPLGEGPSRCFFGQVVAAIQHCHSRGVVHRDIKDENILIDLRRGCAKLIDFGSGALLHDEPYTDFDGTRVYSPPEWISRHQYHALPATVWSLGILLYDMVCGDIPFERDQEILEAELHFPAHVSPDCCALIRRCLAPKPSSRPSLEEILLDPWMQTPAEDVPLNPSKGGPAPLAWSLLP
# p38delta kinase (h), sequence (O15264 whole entry): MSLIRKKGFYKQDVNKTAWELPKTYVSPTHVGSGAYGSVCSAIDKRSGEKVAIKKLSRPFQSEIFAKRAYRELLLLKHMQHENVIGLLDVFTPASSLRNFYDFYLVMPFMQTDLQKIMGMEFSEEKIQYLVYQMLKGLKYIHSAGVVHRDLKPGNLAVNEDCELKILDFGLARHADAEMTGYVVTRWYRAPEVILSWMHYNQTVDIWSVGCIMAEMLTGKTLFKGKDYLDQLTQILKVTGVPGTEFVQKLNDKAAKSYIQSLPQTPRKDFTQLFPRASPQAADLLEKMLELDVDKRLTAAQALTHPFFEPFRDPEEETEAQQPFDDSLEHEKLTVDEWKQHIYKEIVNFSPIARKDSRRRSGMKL
inhibition at 10 µM [1] [%],inhibition at 10 µM [2] [%],inhibition at 10 µM [3] [%],inhibition at 10 µM [4] [%],inhibition at 10 µM [5] [%],inhibition at 10 µM [6] [%],inhibition at 10 µM [7] [%],inhibition at 10 µM [8] [%],inhibition at 10 µM [9] [%],inhibition at 10 µM [10] [%],inhibition at 10 µM [11] [%],inhibition at 10 µM [12] [%],inhibition at 10 µM [13] [%],inhibition at 10 µM [14] [%],inhibition at 10 µM [15] [%],inhibition at 10 µM [16] [%],inhibition at 10 µM [17] [%],inhibition at 10 µM [18] [%],inhibition at 10 µM [19] [%],inhibition at 10 µM [20] [%],SMILES,other results
0,18,10,0,8,0,0,14,1,8,4,35,12,4,12,0,6,31,13,0,"COc1ccc2[nH]nc(C(=O)NCC3CCN(CCc4ccc(O)cc4)CC3)c2c1 [Compound 1, N-({1-[2-(4-hydroxyphenyl)ethyl]-piperidin-4-yl}methyl)-5-methoxy-1H-indazole-3-carboxamide]",inhibition at 10 µM [21]: 1%; inhibition at 10 µM [22]: 11%; inhibition at 10 µM [23]: 2%; inhibition at 10 µM [24]: 0%; inhibition at 10 µM [25]: 9%
3,0,46,0,20,0,0,13,6,0,0,81,1,5,35,18,13,99,10,2,"COc1ccncc1-c1ccc2[nH]nc(C(=O)NCC3CCN(Cc4ccc(C(=O)O)o4)CC3)c2c1 [Compound 21, 5-({4-[({[5-(4-Methoxypyridin-3-yl)-1H-indazol-3-yl]carbonyl}amino)methyl]piperidin-1-yl}methyl)furan-2-carboxylic acid formate]",inhibition at 10 µM [21]: 0%; inhibition at 10 µM [22]: 10%; inhibition at 10 µM [23]: 0%; inhibition at 10 µM [24]: 3%; inhibition at 10 µM [25]: 5%
0,3,0,2,0,0,0,11,0,0,0,22,0,3,4,1,0,10,3,0,"COc1ccc2[nH]nc(C(=O)NCC3CCN(Cc4ccc(C(=O)O)o4)CC3)c2c1 [Compound 24, 5-{[4-({[(5-Methoxy-1H-indazol-3-yl)carbonyl]amino}methyl)piperidin-1-yl]methyl}furan-2-carboxylic acid]",inhibition at 10 µM [21]: 0%; inhibition at 10 µM [22]: 0%; inhibition at 10 µM [23]: 4%; inhibition at 10 µM [24]: 0%; inhibition at 10 µM [25]: 3%
